# Entries after “also recorded” stand apart in the source; their conditions may differ.
# Experiments:
# [1] = tested on: DU-145 human prostate cancer cells; experiment: DCFH (DCF) oxidation assay of ROS, DCF/DNA fluorescence; assay type: cell-based; conditions: for DCF/DNA Fluor, units: DU-145, DMEM + F(5)
# Description: (§1) It is well-accepted in the art that androgen, at physiological concentrations, induces ROS production in androgen dependent prostate cancer cells. A 2′,7′-dichlorodihydrofluorescein diacetate (DCF) oxidation assay was used to measure the ratio of oxidized DCF:DNA fluorescence which is an accepted measure of ROS levels in prostate cell lines.
# The LNCaP human prostate cancer cells were grown in an androgen-depleted medium of 1% FBS and 4% charcoal stripped FBS, (F1/C4) and in the presence or absence of 1 nM synthetic androgen analog R1881 with or without 15 μM antioxidant α-tocopherol (vitamin E) pretreatment.
# BE-3-3-3 is known to induce SSAT enzyme activity in various cell lines including androgen-dependent LNCaP and androgen-independent DU-145 prostate cancel cells. DU-145 cells were treated with increasing concentrations of BE-3-3-3 for 72 hours. Oxidative stress was measured using 96-well plate based 2′7′-dichlorfluorescein diacetate dye (“DCF”) oxidation assay. Each data point is an average of qty. 6 identically-treated wells repeated twice in triplicates.
# DCFH oxidation assay. The 96-well cultures or freshly re-sected animal or human tissues were assayed for estimation of ROS levels in intact cells using the dye 2′,7′ -dichlorofluorescein diacetate (DCF) (Molecular Probes, Inc., Eugene, Oreg.). Re-sected tissues or cell cultures were washed with 200 μL Kreb's Ringer buffer (116 mM NaCl, 4.2 mM KCl, 2.5 mM CaCl2, 1.6 mM NaH2PO4, 1.2 mM MgSO4, 22 mM NaHCO3, and 11 mM D-glucose), pre-warmed to 37° C., incubated at 37° C. in 100 μL Kreb's Ringer buffer containing 10 μg/mL (final concentration) DCF dye for 45 minutes. Each 96-well culture plate was scanned on a CytoFluor 2350™ plate scanner (Applied Biosystems, Foster City, Calif.) using the 485 excitation/530 emission frequencies. […]
# (§2) was added to each well 45 minutes and to all tissues 60 minutes before fluorescence measurements. The DNA fluorescence was determined 360 nm excitation/460 nm emission. All DCF or Hydroethidine fluorescence were normalized to DNA fluorescence for proper quantitation of oxidative stress.
# [2] = tested on: LNCaP human prostate cancer cells; experiment: as above; assay type: cell-based; conditions: for DCF/DNA Fluor, units: DMEM + (F1/C4)
# Description: as §1, with “lines. […]” for “lines.”
# Results were determined using DCF oxidation assay methods. Each data point is an average of readings from qty. 6 wells repeated twice in triplicates.
# DCFH oxidation assay. The 96-well cultures or freshly re-sected animal or human tissues were assayed for estimation of ROS levels in intact cells using the dye 2′,7′ -dichlorofluorescein diacetate (DCF) (Molecular Probes, Inc., Eugene, Oreg.). Re-sected tissues or cell cultures were washed with 200 μL Kreb's Ringer buffer (116 mM NaCl, 4.2 mM KCl, 2.5 mM CaCl2, 1.6 mM NaH2PO4, 1.2 mM MgSO4, 22 mM NaHCO3, and 11 mM D-glucose), pre-warmed to 37° C., incubated at 37° C. in 100 μL Kreb's Ringer buffer containing 10 μg/mL (final concentration) DCF dye for 45 minutes. Each 96-well culture plate was scanned on a CytoFluor 2350™ plate scanner (Applied Biosystems, Foster City, Calif.) using the 485 excitation/530 emission frequencies. Each tissue sample was scanned.
# DNA Assay. Fifty μL of Kreb's Ringer Buffer (40 ug/mL) containing Hoechst 33342 dye, which contains
# as §2
# Androgen Receptor = experiment: Western blot analysis of Androgen Receptor; assay type: in vivo, mouse; conditions: TRAMPxFVB mice
# [3] = Tolerability and body weight in TRAMPxFVB mice; conditions: 25 mg/kgBW
# [4] = tested on: TRAMPxFVB mice (palpable prostate tumor); experiment: Time to palpable tumor development in TRAMPxFVB mice; assay type: in vivo, mouse
# Source text: Signs of palpable prostate tumor development were monitored twice every week.
# [5] = tested on: TRAMP male mice (spontaneous prostate tumors); experiment: Overall survival of TRAMP mice; assay type: in vivo, mouse
# [6] = tested on: prostate tissue in TRAMPxFVB animals; experiment: Hydroethidine (HEt) dye oxidation in prostate sections in vivo; parameters: species or system mouse; conditions: 20-week-old TRAMPxFVB, 6 administrations of 25 mg/kgBW, sacrificed 2 weeks after treatment, HEt 8 mg/kgBW i.v.
# Description: A method using hydroethidine (HEt) dye oxidation was standardized to observe oxidative stress in prostate tumors in vivo. HEt oxidizes to 2-hydroxy ethidium specifically by a ROS(41). The 2-hydroxy ethidium fluoresces at 488 nm excitation and 595 nm emission frequencies. The HEt dye may be safely injected into animals at least 1 hour before sacrifice. Twenty-week old TRAMPxFVB animals were injected with HEt (8 mg/kgBW) 1 hour before sacrifice. After sacrifice, prostate glands were collected, formalin-fixed and paraffin-embedded. Paraffin blocks were microtome-sectioned, and the tissues were deparaffinized, observed using fluorescence microscopy, and analyzed using digital image analysis.
# The picture shown in FIGS. 7A-7D were taken at 20× magnification using an Olympus BH-2 fluorescence microscope using 480 nm excitation/600 nm emission filters coupled with a Sony DSC-V3 digital camera set at F2.8 and 30 sec. exposure.
# Hydroethidine Assay. Hydroethidine dye was dissolved in DMSO (100 mg/ml) and diluted in isotonic saline to 1 mg/ml before injection. […] Microtome sections of the blocks were mounted on slides and were quantitated for fluorescence at 488 nm excitation/595 nm emission frequencies.
# [7] = tested on: TRAMPxFVB male mice (spontaneous prostate tumors); experiment: Overall survival of TRAMPxFVB mice; assay type: in vivo, mouse
# Source text: In the study using the TRAMPxFVB mice, qty. 8 animal were in the MDL 72,527-treated group, and qty. 8 mice were in the vehicle-treated group. Since these animals start prostate tumor development at an earlier age than do the TRAMP animals, treatment began at 8 weeks of age. Treatment included qty. […] Over 60% of the MDL 72,527-treated TRAMPxFVB mice survived at least 8 weeks after the end of the therapy, and at least 6 weeks after the death of the entire group of control vehicle-treated animals.
# [8] = tested on: polyamine and acetyl polyamine levels in LNCaP human prostate cells; experiment: HPLC quantitation of polyamine and acetyl polyamine levels; assay type: cell-based
# Source text: Each data point is an average of 2 determinations of cell pellets collected from qty. 3 independent experiments.
# It can be stated that FIGS. 5A-5E support the conclusion that R1881 treatment increases SSAT mRNA levels while enhancing SSAT enzyme activity.
# [9] = tested on: SSAT mRNA in LNCaP human prostate cancer cells; experiment: qRT-PCR quantitation of SSAT mRNA normalized to GAPDH mRNA; assay type: cell-based; conditions: 1 nM R1881, 96 hours
# Source text: Each data point is an average of readings from qty. six identically-treated wells repeated twice in triplicates. […] It can be thus postulated that androgen-induced SSAT gene expression is a significant contributor to cellular ROS production in androgen-dependent prostate cancer cells.
# [10] = tested on: SSAT gene expression in LNCaP cells; experiment: DNA microarray analysis of gene expression (Affymetrix Genechip Arrays); assay type: cell-based, human; conditions: 1 nM R1881, 96 hours
# Description: As shown schematically in FIG. 1, unusually high polyamine levels in prostate cells and high induction of SSAT may induce large increases in ROS levels. A DNA microarray analysis of gene expression in control untreated LNCaP cells and cells treated with 1 nM androgen analog R1881 for 96 hours was performed twice using Affymetrix Genechip Arrays. In both experiments, SSAT was clearly identified as being highly over-expressed in R1881 treated with LNCaP cells as compared to untreated control cells. Among the list of genes that are over-expressed (more than 10-fold over the control), SSAT was the only enzyme connected to the ROS-generating pathway.
# [11] = 1 μM BE-3-3-3 + 25 μM MDL 72,527
# [12] = LNCaP, 24 h pretreatment 25 μM MDL 72,527 then 1 nM R1881 96 h
compound,measurement,setting,value
"CCNCCCNCCCNCCCNCC [BE-3-3-3, bisethylnorspermine]","DCF/DNA Fluor, units",[1]; 1 μM BE-3-3-3,0.67 units
same,"cellular ROS levels (DCF/DNA fluorescence, percent of control)","[1]; DU-145, increasing BE-3-3-3 concentration, 72 hours, non-cytotoxic dose <1 μM",increases oxidative stress; also recorded: increases cellular ROS levels
same,"DCF/DNA Fluor, units",[2]; 1 μM BE-3-3-3,3.19 units
"C=C=CCNCCCCNCC=C=C [MDL 72,527]",Androgen Receptor level (Western blot),Androgen Receptor,not due to down-regulation of the Androgen Receptor
same,"tolerability (overt signs of toxicity, abnormal behavior, body weight loss)",[3],well-tolerated
same,"DCF/DNA Fluor, units",[1]; [11],0.26 units
same,androgen (R1881) induced production of ROS,"[2]; 25 μM MDL 72,527 pretreatment, increasing R1881 concentration 96 hours",effectively blocks androgen induced production of ROS
same,"DCF/DNA Fluor, units",[2]; [11],1.87 units
same,time to tumor development,"[4]; TRAMPxFVB mice, 25 mg/kgBW every two weeks",delays time to tumor development
same,treated mice with no signs of palpable tumor,"[4]; TRAMPxFVB, 11 weeks after treatment discontinued (29 week old animals), 25 mg/kgBW once bi-weekly",over 40%
same,survival benefit vs vehicle-treated mice,[5]; 25 mg/kgBW i.p. bi-weekly,Over 60%
same,overall survival (OS) vs vehicle,"[5]; 25 mg/kgBW i.p. bi-weekly x3, from 22 weeks",significant improvement; also recorded: improvement in overall survival; also recorded: improved overall survival
same,"HEt dye oxidation (fluorescence) in prostate section, oxidative stress in vivo",[6],less HEt fluorescence; also recorded: no dye oxidation was detected
same,survival benefit vs vehicle-treated mice,[7]; 25 mg/kgBW i.p. bi-weekly,Over 60%
same,treated mice surviving at least 8 weeks after the end of the therapy,[7]; 25 mg/kgBW i.p. bi-weekly x6,Over 60%
same,overall survival (OS) vs vehicle,"[7]; 25 mg/kgBW i.p. bi-weekly x6, from 8 weeks of age",significant increase in OS; also recorded: improvement in overall survival; also recorded: increased overall survival
same,N-acetyl-spermidine level,[8]; [12],significant increase
same,N-acetylspermine level,[8]; [12],significant increase
same,R1881-induced increase in putrescine level,[8]; [12],almost completely blocked the induced increase
same,R1881-induced increase in spermidine level,[8]; [12],almost completely blocked the induced increase
same,spermine level,[8]; [12],without appreciably changing
same,APAO activity in cells,"[8]; LNCaP, MDL 72,527 at 25 μM",efficiently and effectively blocked APAO activity
same,N-Ac-spermine level,"[8]; LNCaP, treated with the compound (25 μM, 120 hours), without R1881",insignificantly small increase
same,effect on SSAT gene expression and/or enzymatic activity,"[8]; androgen-treated LNCaP cells, 25 μM MDL 72,527",no material effect
"C[C@]1(O)CC[C@H]2[C@@H]3CCC4=CC(=O)CCC4=C3C=C[C@@]21C [R1881, reference compound]",oxidative stress,[2]; 0.05 nM R1881,no increase in oxidative stress
same,"DCF/DNA Fluor, units",[2]; 1 nM R1881,3.34 units
same,increase in SSAT gene expression vs untreated control cells (qRT-PCR),[9],50 fold
same,SSAT over-expression over the control (DNA microarray),[10],more than 10 fold
same,N-acetyl spermidine level,"[8]; LNCaP, 1 nM R1881, 96 hours",increases
same,N-acetylspermine level,"[8]; LNCaP, 1 nM R1881, 96 hours",increases
same,putrescine level,"[8]; LNCaP, 1 nM R1881, 96 hours",significantly increases
same,spermidine level,"[8]; LNCaP, 1 nM R1881, 96 hours",significantly increases
same,spermine level,"[8]; LNCaP, 1 nM R1881, 96 hours",decreases
"Cc1c(C)c2c(c(C)c1O)CC[C@@](C)(CCC[C@H](C)CCC[C@H](C)CCCC(C)C)O2 [Vitamin E, α-tocopherol]","DCF/DNA Fluor, units",[2]; 1 nM R1881 + 15 μM Vitamin E,1.80 units
